Values quoted from earlier work, collected in patent US6872562B2, “Herbicide resistant dinitrogen fixing bacteria and method of use” (priority 2001, dated 2005).

Test system: soybean
Details: in vivo; cited from earlier work

Structure (SMILES): CCCN(CCC)c1c([N+](=O)[O-])cc(C(F)(F)F)cc1[N+](=O)[O-] [Trifuralin]
- Effect on nodulation and N2 fixation: decreases nodulation and N2 fixation
